According to patent publication US6200993A, “Heterosubstituted pyridine derivatives as PDE4 inhibitors” (Merck Frosst Canada & Co., priority 2000, dated 2001):

target: T1, GST-Met 248 PDE 4a (purified GST fusion protein of the human recombinant phosphodiesterase IVa (met-248)) (Homo sapiens, UniProt P27815); experiment: SPA Based PDE Activity Assay (hydrolysis of cAMP to AMP); format: biochemical; settings: 100 nM cAMP; baculovirus/Sf-9 expressed enzyme; ten point titration
T1 construct: phosphodiesterase IVa (met-248); made in house; host or cells: Sf-9 insect cells (baculovirus)
T1 sequence (P27815 248-886 limits assumed): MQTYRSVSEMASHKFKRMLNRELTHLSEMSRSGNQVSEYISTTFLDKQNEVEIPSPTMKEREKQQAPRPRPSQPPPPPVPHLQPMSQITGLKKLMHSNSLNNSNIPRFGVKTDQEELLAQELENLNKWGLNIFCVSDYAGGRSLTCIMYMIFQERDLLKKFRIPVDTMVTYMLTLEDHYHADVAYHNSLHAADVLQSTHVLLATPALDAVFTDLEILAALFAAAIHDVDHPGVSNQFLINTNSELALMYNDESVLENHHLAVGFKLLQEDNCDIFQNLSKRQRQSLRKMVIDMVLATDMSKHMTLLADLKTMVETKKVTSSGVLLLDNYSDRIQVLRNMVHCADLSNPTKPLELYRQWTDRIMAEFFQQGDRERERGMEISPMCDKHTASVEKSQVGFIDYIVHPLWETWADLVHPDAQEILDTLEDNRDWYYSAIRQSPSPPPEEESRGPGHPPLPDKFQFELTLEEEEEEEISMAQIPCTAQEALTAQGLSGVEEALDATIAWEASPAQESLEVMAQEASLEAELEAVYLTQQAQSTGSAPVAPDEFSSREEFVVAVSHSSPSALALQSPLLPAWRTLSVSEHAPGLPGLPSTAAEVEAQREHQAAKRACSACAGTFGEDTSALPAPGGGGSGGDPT
Description: SPA Based PDE Activity Assay Protocol
Compounds which inhibit the hydrolysis of cAMP to AMP by the type-IV cAMP-specific phosphodiesterases were screened in 96-well plate format as follows:
In a 96 well-plate at 30° C. was added the test compound (dissolved in 2 μl DMSO), […] of substrate buffer containing [2,8-^3 H] adenosine 3',5'-cyclic phosphate (cAMP, 100 nM to 50 μM), 10 mM MgCl2, 1 mM EDTA, 50 mM Tris, pH 7.5. The reaction was initiated by the addition of […] of human recombinant PDE-IV (the amount was controlled so that ~10% product was formed in 10 min.). The reaction was stopped after 10 min. by the addition of 1 mg of PDE-SPA beads (Amersham). The product AMP generated was quantified on a Microbeta 96-well plate counter. The signal in the absence of enzyme was defined as the background. 100% activity was defined as the signal detected in the presence of enzyme and DMSO with the background subtracted. Percentage of inhibition was calculated accordingly. IC50 value was approximated with a non-linear regression fit using the standard 4-parameter/multiple binding sites equation from a ten point titration.
IC50 values shown in Table 7 were determined with 100 nM cAMP using the purified GST fusion protein of the human recombinant phosphodiesterase IVa (met-248) produced from a baculovirus/Sf-9 expression system.

IC50 [nM]	SMILES
2.84	CN(Cc1ccccc1)c1ccc(C(Cc2ccncc2)c2ccc(OC(F)F)c(OC(F)F)c2)cn1 (racemic) [Example 54, 4-{2-[3,4-BIS(DIFLUOROMETHOXY)PHENYL]-2-[6-(N-METHYL-N-BENZYLAMINO)3-PYRIDYL]ETHYL}PYRIDINE]
0.75	FC(F)Oc1ccc(C(Cc2ccncc2)c2ccc(NCc3ccccc3)nc2)cc1OC(F)F (racemic) [Example 1, 4-{2-[3,4-Bis(difluoromethoxy)phenyl]-2-[6-(benzylamino)3-pyridyl]ethyl}pyridine]
0.84	O=C(c1ccc(F)cc1)N(C(=O)c1ccc(F)cc1)c1ccc(C(Cc2cc[n+]([O-])cc2)c2ccc(OC(F)F)c(OC(F)F)c2)cn1 (single isomer, unassigned; enantiomer-2) [Example 99, (ENANTIOMER-2)-4-{2-[3,4-BIS(DIFLUOROMETHOXY)PHENYL]-2-{6-[N,N-DI(4-FLUOROBENZAMIDE)]3-PYRIDYL}ETHYL}PYRIDINE-N-OXIDE]
3.1	COc1ccc(N(C)c2ccc(C(Cc3cc[n+]([O-])cc3)c3ccc(OC(F)F)c(OC(F)F)c3)cn2)cc1 (racemic) [Example 69, 4-{2-[3,4-Bis(difluoromethoxy)phenyl]-2-[6-(N-methyl-N-4-methoxyphenylamino)3-pyridyl]ethyl}pyridine-N-oxide]
1.63	CC(C)(Nc1ccc(C(Cc2cc[n+]([O-])cc2)c2ccc(OC(F)F)c(OC(F)F)c2)cn1)c1ccccc1 (racemic) [Example 11, 4-{2-[3,4-Bis(difluoromethoxy)phenyl]-2-[6-(1-methyl-1-phenylethylamino)3-pyridyl]ethyl}pyridine-N-oxide]
